The values below come from article PMC10004598, “Identification and Characterization of a Novel Cathelicidin from Hydrophis cyanocinctus with Antimicrobial and Anti-Inflammatory Activity” (Molecules, 2023).

For series [1], the system named is K. pneumoniae 50 (clinical isolate). In words: microbe, parasite or virus in culture. As for the experimental part:
(§1) The microorganisms (Staphylococcus aureus [ATCC 25923], Escherichia coli [ATCC 25922], and Propionibacterium acnes [ATCC 6919]) were obtained from Fuxiang Biotechnology (Shanghai, China). The five strains of K. pneumoniae clinical isolates (44, 48, 49, 50, and 51) were obtained from the Department of Critical Care Medicine, Shanghai Tenth People’s Hospital.
(§2) The antimicrobial assay was performed by broth microdilution method, following the guidelines of the Clinical and Laboratory Standards Institute. Strains (mentioned in Section 4.3) were inoculated into Mueller-Hinton broth (MH), oscillated (37 °C, 220 rpm, 12 h) to the logarithmic growth stage, and then diluted to 10^6 CFU/mL. […] Then, the absorbance was measured at 600 nm in a microplate reader (Epoch Biotek, Winooski, VT, USA). […] The minimum inhibitory concentration (MIC) was defined as the lowest concentration of an antimicrobial where there was no visible growth. After measuring the MIC, a 50 μL sample was taken from the growth well without visible bacteria, serially diluted with phosphate-buffered saline (PBS, pH = 7.0), then spread on an MH agar solid medium and incubated at 37 °C for 12 h. The number of colonies was calculated, and the minimum drug concentrations that killed 99.9% of bacteria were considered the minimum bactericidal concentration (MBC) of the peptide.

The subject of series [2] is K. pneumoniae 51 (clinical isolate). Description: microbe, parasite or virus in culture. As for the experimental part:
as §1, §2

For series [3], the system named is K. pneumoniae 49 (clinical isolate). In words: microbe, parasite or virus in culture. The procedure: as §1, §2
Series [4] deals with Propionibacterium acnes [ATCC 6919]. Description: microbe, parasite or virus in culture. The procedure: as §1, §2
For series [5], the system named is Klebsiella pneumoniae 44 (clinical isolate). In words: microbe, parasite or virus in culture. As for the experimental part:
as §1, §2

Series [6] has as its system K. pneumoniae 48 (clinical isolate). Description: microbe, parasite or virus in culture. As for the experimental part: as §1, §2
Series [7] deals with Escherichia coli [ATCC 25922]. In words: microbe, parasite or virus in culture. The procedure: as §1, §2
Series [8] deals with E. coli. The series is classed as cell-based, Escherichia coli. To be noted: compound at MBC, 37 °C. As for the experimental part: Time-killing kinetics were determined with the method as previously described. […] The mixture was sampled 50 μL at 5, 15, 30, 60, 120, 240, and 480 min. Dilute the samples with sterile MH broth to a 10-fold gradient. Bacterial suspensions were plated at MH agar plates. After incubation at 37 °C for 12 h, the number of colonies was calculated.

Series [9] relates to E. coli. To be noted: human serum:peptide solution (10 mg/mL) 4:1 v:v, 37 °C, read-out MIC, mean of three independent experiments in triplicate.
Description: The same amount of solution was taken at each time point and gradient dilution was carried out with normal saline.
Another series relates to human erythrocytes. To be noted: human erythrocytes 2% suspension, 250 μg/mL, 37 °C, 0.5 h, absorbance 540 nm, 1% Triton X-100 = complete hemolysis; mean of three independent experiments in triplicate. As for the experimental part:
Centrifuge at 25 °C at 1500 rpm for 5 min. Transfer 180 μL of supernatant to a 96-well plate and measure absorbance value at 540 nm. Normal saline was used as a negative control and 1% Triton X-100 solution as a positive control (complete hemolysis).

Series [10] deals with S. aureus biofilm formation. In words: Biofilm inhibition assay (crystal violet). The class given is cell-based, Staphylococcus aureus. To be noted: 2 × MIC, 37 °C, 24 h, absorbance 600 nm, three independent experiments in quintuplicate. As for the experimental part: Sterile PBS was used to wash 3 times and methanol was used to fix it for 0.5 h. After drying, 1% crystal violet solution was used to stain for 0.5 h, washed 3 times with sterilized deionized water, and dissolved with 100 μL anhydrous ethanol. The absorbance was measured at 600 nm.

The test system of series [11] is E. coli. To be noted: mean of three independent experiments in triplicate. The procedure:
E.coli was inoculated into MH broth and oscillated (37 °C, 220 rpm, 12 h) to the logarithmic growth stage. Then diluted to 10^6 CFU/mL. […] Then, the absorbance was measured at 600 nm.

Series [12] concerns HaCaT (human immortal keratinocyte cell line). In words: Cytotoxicity assay (CCK-8). The class given is cell-based. To be noted: 32 μg/mL, 24 h, mean of three independent experiments in triplicate. As for the experimental part:
(§3) RAW264.7 (murine macrophage cell line), L929 (mouse fibroblast cell line), and HaCaT (human immortal keratinocyte cell line) were purchased from the Shanghai Institute of Biochemistry and Cell Science, Chinese Academy of Sciences.
(§4) The cells were cultured using a DMEM medium containing 10%FBS and 1% penicillin-streptomycin solution. In 96-well plates, 100 µL of cells (2 × 10^4 cells/well) in DMEM were seeded and cultured overnight in an incubator at 5% CO2 and 37 °C. […] Subsequently, the medium was replaced by 100 μL DMEM containing 10% Cell Counting Kit-8 reagent, and incubated for 0.5 h at 37 °C. The absorbance was measured at […].

The subject of series [13] is L929 (mouse fibroblast cell line). In words: Cytotoxicity assay (CCK-8). The class given is cell-based. To be noted: L929, 32 μg/mL, 24 h, mean of three independent experiments in triplicate. The procedure: as §3, §4
In series [14] the test system is Staphylococcus aureus [ATCC 25923]. To be noted: broth microdilution, MH broth, 37 °C, 16–20 h. The procedure:
as §1, §2
In general terms: In broth dilution the organism is exposed to a series of concentrations in liquid medium.

The test system of series [15] is E. coli. To be noted: mean of three independent experiments in triplicate. As for the experimental part:
E. coli was inoculated into MH broth and oscillated (37 °C, 220 rpm, 12 h) to the logarithmic growth stage. Then diluted to 10^6 CFU/mL. […] The MICs of these peptides were then measured.
The source holds these as a separate data set.

For series [16], the system named is E. coli. To be noted: mean of three independent experiments in triplicate. As for the experimental part: E. coli was inoculated into MH broth and oscillated (37 °C, 220 rpm, 12 h) to the logarithmic growth stage. Then diluted to 10^6 CFU/mL in MH broth with NaCl (0, 50, 100, 150, and 200 mM) or CaCl2 (1, 2, and 4 mM). […] The absorption value was detected at 600 nm.
The source holds these as a separate data set.

≈ marks a conversion by molar mass, not a printed value. Where two headings read alike, the source gives them in different places. No end group written: not given here.

Regarding `CC1(C)S[C@@H]2[C@H](NC(=O)[C@H](N)c3ccccc3)C(=O)N2[C@H]1C(=O)O` [Ampicillin, reference compound], the MIC is more than 128 µg/mL in [1] (Klebsiella pneumoniae); more than 128 µg/mL in [2] (Klebsiella pneumoniae); more than 128 µg/mL in series [3] (Klebsiella pneumoniae); 0.25 µg/mL (≈ 0.715 µM) in series [4] (Cutibacterium acnes, ATCC6919); more than 128 µg/mL in series [5] (Klebsiella pneumoniae); more than 128 µg/mL in [6] (Klebsiella pneumoniae). The MBC in [7] (ATCC25922, 12 h) worked out at 16 µg/mL (≈ 45.8 µM). In the series on E. coli [8], the “time at which bacteriostatic effect starts” value is listed as not below 1 h. Also, the “killing of E. coli within 8 h” value in the series with E. coli [8] (8 h) is “failed to completely kill”. In addition, the killing rate result in the series on E. coli [8] (after 4 h) is given as “about 47%”.

As for “KRFKKFFKKLRKSVKKRVKKFFKKPKVIGVSIPF [Hydrostatin-AMP2]”, the “MIC after incubation with human serum” value with E. coli [9] (1 h), in the series with E. coli [9] (2 h) and in the series with E. coli [9] (3 h) was 32 µg/mL throughout. This compound had a Hemolysis in the series with human erythrocytes of 4.6%. Moreover, the MIC is 32 µg/mL in series [1] (K. pneumoniae 50, clinical isolate, broth microdilution, MH broth, 37 °C, 16–20 h); 32 µg/mL in series [2] (K. pneumoniae 51, clinical isolate, broth microdilution, MH broth, 37 °C, 16–20 h); 32 µg/mL in [3] (K. pneumoniae 49, clinical isolate, broth microdilution, MH broth, 37 °C, 16–20 h); 32 µg/mL in series [4] (Propionibacterium acnes, broth microdilution, MH broth, 37 °C, 16–20 h); 32 µg/mL in [5] (Klebsiella pneumoniae 44, clinical isolate, broth microdilution, MH broth, 37 °C, 16–20 h); 16 µg/mL in series [6] (K. pneumoniae 48, clinical isolate, broth microdilution, MH broth, 37 °C, 16–20 h). The MIC in series [7] (broth microdilution (CLSI), MH broth, 10^6 CFU/mL, 37 °C, 16–20 h, absorbance 600 nm) amounted to 16 µg/mL; in series [14], 32 µg/mL; against E. coli [16] (Control (NaCl 0 mM, untreated peptide)) it was 16 µg/mL; against E. coli [16] (MH broth with CaCl2 1 mM), 64 µg/mL; in the series with E. coli [16] (MH broth with CaCl2 2 mM), 64 µg/mL; against E. coli [16] (MH broth with CaCl2 4 mM), 128 µg/mL. For the same compound, the MIC came out at 32 µg/mL against E. coli [16] (MH broth with NaCl 50 mM), 32 µg/mL with E. coli [16] (MH broth with NaCl 100 mM), 32 µg/mL in the series with E. coli [16] (MH broth with NaCl 150 mM) and 64 µg/mL in the series on E. coli [16] (MH broth with NaCl 200 mM). In series [7] (minimum concentration killing 99.9% of bacteria, plating on MH agar, 37 °C, 12 h), this compound showed an MBC of 32 µg/mL. Also, the “inhibition of biofilm formation” value in series [10] is recorded as 71.02%. For the same compound, the “MIC after incubation at temperature” value in the series with E. coli [11] (peptide incubated at 4 °C for 1 h) worked out at 32 µg/mL; in the series with E. coli [11] (peptide incubated at 37 °C for 1 h), 32 µg/mL; against E. coli [11] (peptide incubated at 80 °C for 1 h), 32 µg/mL; in the series on E. coli [11] (peptide incubated at 100 °C for 1 h), 64 µg/mL. Further, the “Cell Death” value in series [12] is 5.89%; in series [13], 8.08%. Moreover, in the series with E. coli [15] (peptide incubated in PBS pH 2 for 4 h at 37 °C), the “MIC after incubation at pH 2” value was determined as 64 μg/mL. Also, the “MIC after incubation at pH 12” value in the series with E. coli [15] (peptide incubated in PBS pH 12 for 4 h at 37 °C) came out at 64 μg/mL.
